Values after ≈ are worked out from the molar mass of the structure shown. Active and inactive are the calls of the source. The calls are words filed in the database; no cut-off is given here.
Experiments:
4T1 [1] = test: Antitumor activity against mouse 4T1 cells implanted in Balb/c mouse assessed as appearance of mitochondrial swelling at 25 to 35 mg/kg, ip administered once every 2 days for 14 days by TEM analysis; type: functional, organism-based; settings: dose 25-35 mg/kg, time 14.0 day
HUVEC = test: Cytotoxicity against human HUVEC cells; type: toxicity, cell-based
4T1 [2] = test: Antitumor activity against mouse 4T1 cells implanted in Balb/c mouse assessed as appearance of chromatin aggregation at 25 to 35 mg/kg, ip administered once every 2 days for 14 days by TEM analysis; type: functional, organism-based; settings: dose 25-35 mg/kg, time 14.0 day
[3] = Toxicity in female Balb/c mouse implanted with mouse 4T1 cells assessed as change in spleen at 25 to 35 mg/kg, ip administered once every 2 days for 14 days; type: organism-based; settings: in vivo, 48 h, dose 25-35 mg/kg, time 2 day
4T1 [4] = test: Antitumor activity against mouse 4T1 cells implanted in Balb/c mouse assessed as appearance of chromatin aggregation at 80 mg/kg, IT administered once every 4 days for 14 days in presence of olive oil by TEM analysis; type: functional, organism-based; settings: time 14.0 day
[5] = Toxicity in Kunming mouse assessed as change in kidney lesions at 240 to 469 mg/kg, ip administered for 14 days by H and E staining based analysis; type: organism-based; settings: in vivo, 336 h, dose 240-469 mg/kg, time 14 day
[6] = Solubility of compound in water; type: physicochemical
[7] = Toxicity in Kunming mouse assessed as change in liver lesions at 240 to 469 mg/kg, ip administered for 14 days by H and E staining based analysis; type: organism-based; settings: in vivo, 336 h, dose 240-469 mg/kg, time 14 day
4T1 [8] = test: Antitumor activity against mouse 4T1 cells implanted in Balb/c mouse assessed as appearance of vacuolation at 80 mg/kg, IT administered once every 4 days for 14 days in presence of olive oil by TEM analysis; type: functional, organism-based; settings: time 14.0 day
4T1 [9] = test: Antitumor activity against mouse 4T1 cells implanted in Balb/c mouse assessed as appearance of irregular necrotic foci at 25 mg/kg, ip administered once every 2 days for 14 days; type: functional, organism-based; settings: time 14.0 day
4T1 [10] = test: Antitumor activity against mouse 4T1 cells implanted in Balb/c mouse assessed as damage in endoplasmic reticulum at 25 to 35 mg/kg, ip administered once every 2 days for 14 days by TEM analysis; type: functional, organism-based; settings: dose 25-35 mg/kg, time 14.0 day
MDA-MB-231 [11] = test: Induction of cell cycle arrest in human MDA-MB-231 cells assessed as accumulation of cells at G0/G1 phase at 1 uM incubated for 24 hrs by PI staining based flow cytometric analysis (reference value: 57.31%); type: functional
4T1 [12] = test: Antitumor activity against mouse 4T1 cells implanted in Balb/c mouse assessed as damage in endoplasmic reticulum at 200 mg/kg, TOP administration once every 2 days for 14 days; type: functional, organism-based; settings: time 14.0 day
[13] = Cardiotoxicity in Kunming mouse assessed as change in LDH level administered intraperitoneally for 14 days (reference value: 1253 +/- 67.28 U); type: toxicity; settings: in vivo, ip, 336 h, time 14 day
NIH3T3 = test: Cytotoxicity against mouse 3T3 cells; type: toxicity, cell-based
4T1 [14] = test: Antitumor activity against mouse 4T1 cells implanted in Balb/c mouse assessed as reduction in tumor volume at 80 mg/kg, IT administered once every 4 days in presence of olive oil; type: functional, organism-based
[15] = Hepatotoxicity in Kunming mouse assessed as change in AST level administered intraperitoneally for 14 days (reference value: 153.25 +/- 15.26 U); type: toxicity; settings: in vivo, ip, 336 h, time 14 day
4T1 [16] = test: Antitumor activity against mouse 4T1 cells implanted in Balb/c mouse assessed as appearance of larger intercellular gaps at 80 mg/kg, IT administered once every 4 days for 14 days in presence of olive oil by TEM analysis; type: functional, organism-based; settings: time 14.0 day
[17] = Toxicity in female Balb/c mouse implanted with mouse 4T1 cells assessed as mortality at 25 to 35 mg/kg, ip administered once every 2 days; type: organism-based; settings: in vivo, 48 h, dose 25-35 mg/kg, time 2 day
4T1 [18] = test: Antitumor activity against mouse 4T1 cells implanted in Balb/c mouse assessed as tumor inhibition rate at 80 mg/kg, IT administered once every 4 days in presence of olive oil relative to control; type: functional; set-up: scale not given: the % may be the effect or the level left
A549 = test: Antiproliferative activity against human A549 cells assessed as inhibition of cell proliferation incubated for 48 hrs by CCK-8 assay; type: functional, cell-based; settings: A549, 48 h
[19] = Toxicity in Kunming mouse assessed as change in heart lesions at 240 to 469 mg/kg, ip administered for 14 days by H and E staining based analysis; type: organism-based; settings: in vivo, 336 h, dose 240-469 mg/kg, time 14 day
[20] = Toxicity in female Balb/c mouse implanted with mouse 4T1 cells assessed as abnormal behaviour at 80 mg/kg, IT administered once every 4 days in presence of olive oil; type: organism-based; settings: in vivo, other, 96 h
MDA-MB-231 [21] = test: Induction of apoptosis in human MDA-MB-231 cells assessed as viable cells at 1 uM incubated for 24 hrs by Annexin-V/PI staining based flow cytometric analysis (reference value: 93.37%); type: functional; settings: read-out: Activity
4T1 [22] = test: Antitumor activity against mouse 4T1 cells implanted in Balb/c mouse assessed as tumor suppression rate at 35 mg/kg, ip administered once every 2 days for 14 days relative to control; type: functional
[23] = Toxicity in Kunming mouse assessed as appearance of mononuclear macrophages in alveolar lumen at 240 to 469 mg/kg, ip administered for 14 days by H and E staining based analysis; type: organism-based; settings: in vivo, 336 h, dose 240-469 mg/kg, time 14 day
[24] = Cardiotoxicity in Kunming mouse assessed as change in CK level administered intraperitoneally for 14 days (reference value: 851.75 +/- 87.81 U); type: toxicity; settings: in vivo, ip, 336 h, time 14 day
MDA-MB-231 [25] = test: Induction of cell cycle arrest in human MDA-MB-231 cells assessed as accumulation of cells at S phase at 1 uM incubated for 24 hrs by PI staining based flow cytometric analysis (reference value: 8.71%); type: functional
4T1 [26] = test: Antitumor activity against mouse 4T1 cells implanted in Balb/c mouse assessed as reduction in tumor volume at 25 to 35 mg/kg, ip administered once every 2 days for 14 days; type: functional, organism-based; settings: dose 25-35 mg/kg, time 14.0 day
4T1 [27] = test: Antitumor activity against mouse 4T1 cells implanted in Balb/c mouse assessed as reduction in tumor size at 80 mg/kg, IT administered once every 4 days in presence of olive oil; type: functional, organism-based
[28] = Toxicity in female Balb/c mouse implanted with mouse 4T1 cells assessed as abnormalities in lungs at 35 mg/kg, ip administered once every 2 days for 14 days; type: organism-based; settings: in vivo, 336 h, time 14 day
4T1 [29] = test: Antitumor activity against mouse 4T1 cells implanted in Balb/c mouse assessed as appearance of vacuolation at 200 mg/kg, TOP administration once every 2 days for 14 days; type: functional, organism-based; settings: time 14.0 day
[30] = Toxicity in female Balb/c mouse implanted with mouse 4T1 cells assessed as behavioural changes at 25 to 35 mg/kg, ip administered once every 2 days; type: organism-based; settings: in vivo, 48 h, dose 25-35 mg/kg, time 2 day
MDA-MB-231 [31] = test: Antiproliferative activity against human MDA-MB-231 cells assessed as inhibition of cell proliferation incubated for 48 hrs by CCK-8 assay; type: functional, cell-based; settings: MDA-MB-231, 48 h
4T1 [32] = test: Antitumor activity against mouse 4T1 cells implanted in Balb/c mouse assessed as appearance of central tumor necrosis at 35 mg/kg, ip administered once every 2 days for 14 days relative to control; type: functional; settings: time 14 day
4T1 [33] = test: Antitumor activity against mouse 4T1 cells implanted in Balb/c mouse assessed as appearance of mitochondrial swelling at 80 mg/kg, IT administered once every 4 days for 14 days in presence of olive oil by TEM analysis; type: functional, organism-based; settings: time 14.0 day

**Q.** What does the source list for `Cc1[nH]c2ccccc2c1C1=C(F)C(=O)C(F)=C(N2CCOCC2)C1=O`?
**A.** Activity (4T1 [1]): Active; Activity (HUVEC): Toxic; Activity (4T1 [2]): Active; Activity [3]: Non-toxic; Activity (4T1 [4]): Active; Activity [5]: Non-toxic; solubility [6]: 28 µg/mL (≈ 78.1 µM); Activity [7]: Non-toxic; Activity (4T1 [8]): Active; Activity (4T1 [9]): Active; Activity (4T1 [10]): Active; Activity (MDA-MB-231 [11]): 32.15%; Activity (4T1 [12]): Active; Activity [13]: 1060 U/L; Activity (NIH3T3): Toxic; Activity (4T1 [14]): Active; Activity [15]: 106 U/L; Activity (4T1 [16]): Active; Activity [17]: Non-toxic; Activity (4T1 [18]): 41.9%; IC50 (A549): 5.21 µM; Activity [19]: Non-toxic; Activity [20]: Non-toxic; viability at 1 µM (MDA-MB-231 [21]): 45.1%; Activity (4T1 [22]): 50%; Activity [23]: Toxic; Activity [24]: 812 U/L; Activity (MDA-MB-231 [25]): 4.21%; Activity (4T1 [26]): Active; Activity (4T1 [27]): Active; Activity [28]: Non-toxic; Activity (4T1 [29]): Active; Activity [30]: Non-toxic; IC50 (MDA-MB-231 [31]): 3.2 µM; Activity (4T1 [32]): 100%; Activity (4T1 [33]): Active

Source: ChEMBL document CHEMBL6114979, “Discovery of 3-indolylbenzoquinone derivatives with therapeutic potential for breast cancer” (Bioorg Med Chem, 2025)
